According to publication PMC6736837, “^18F-labelled triazolyl-linked argininamides targeting the neuropeptide Y Y1R for PET imaging of mammary carcinoma” (Scientific Reports, 2019):

Columns and labels:
hY1R = target: T1, hY1R (Homo sapiens, UniProt P25929); assay: Y1R competition binding with [^3H]UR-MK299 on SK-N-MC neuroblastoma cells; settings: displacement of [^3H]UR-MK299, SK-N-MC neuroblastoma cells
T1 construct: endogenous in cells; host or cells: SK-N-MC neuroblastoma cells
T1 sequence (P25929 1-384): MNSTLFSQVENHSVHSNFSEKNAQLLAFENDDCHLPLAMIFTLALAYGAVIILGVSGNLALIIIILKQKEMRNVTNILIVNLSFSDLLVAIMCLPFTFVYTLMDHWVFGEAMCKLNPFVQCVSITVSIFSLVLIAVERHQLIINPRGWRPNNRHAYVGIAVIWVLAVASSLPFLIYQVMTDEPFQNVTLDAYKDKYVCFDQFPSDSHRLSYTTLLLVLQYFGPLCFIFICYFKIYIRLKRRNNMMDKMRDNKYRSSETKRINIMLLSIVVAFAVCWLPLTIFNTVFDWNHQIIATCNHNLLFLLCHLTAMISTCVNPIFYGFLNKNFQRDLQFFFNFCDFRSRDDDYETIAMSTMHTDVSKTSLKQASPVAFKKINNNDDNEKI
Method: (§1) Data analysis (four-parameter sigmoidal fitting of specifically bound radioligand plotted against log(concentration) competitor) was performed using SigmaPlot (Systat Software, San Jose, CA, USA) (Y1R binding). IC50 values were converted to Ki values according to the Cheng-Prusoff equation[24].

hY2R = target: T2, hY2R (Homo sapiens, UniProt P49146); assay: Competition binding on CHO-hY2-Gqi5-mtAEQ cells with [^3H]propionyl-pNPY; settings: for selectivity for Y1R over Y2R (multiple of the Ki value for Y1R): calculated from Ki values; for binding to Y2R (in words): maximum concentration of 10 µM
T2 construct: expressed in transfected cells; host or cells: CHO cells (CHO-hY2-Gqi5-mtAEQ)
T2 sequence (P49146 1-381): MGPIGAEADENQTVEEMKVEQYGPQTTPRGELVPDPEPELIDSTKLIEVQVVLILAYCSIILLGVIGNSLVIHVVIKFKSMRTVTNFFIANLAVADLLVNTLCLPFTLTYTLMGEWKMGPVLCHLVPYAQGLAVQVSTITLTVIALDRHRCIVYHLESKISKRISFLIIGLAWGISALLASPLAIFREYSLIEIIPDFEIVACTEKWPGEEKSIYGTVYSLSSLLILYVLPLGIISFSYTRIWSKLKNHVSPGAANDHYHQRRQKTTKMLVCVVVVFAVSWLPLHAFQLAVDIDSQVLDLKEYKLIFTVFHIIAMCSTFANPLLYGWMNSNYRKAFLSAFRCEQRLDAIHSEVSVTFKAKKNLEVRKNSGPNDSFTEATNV
Method: as §1
(§2) Table S1: Structures, in-vitro Y1 receptor affinities and selectivities of potential Y1R PET radioligands. For Y2R, Y4R and Y5R, Ki values are given in the first row. In the second row, the calculated selectivities for Y1R over Y2R, Y4R and Y5R are given as a multiple of the Ki value for […]
(§3) compound structure hY1R hY2R hY4R hY5R
(§4) Ki ± SEMa Kiselectivity selectivity selectivity […]
(§5) aDetermined by competition binding on SK-N-MC neuroblastoma cells using the radioligand [3H]UR-MK2994.
(§6) Mean Ki values ± SEM are the results of three individual experiments each performed in triplicate. bDetermined by competition binding at CHO-hY2-Gqi5-mtAEQ cells and HEC-1b hY5R cells using the radioligand [3H]propionyl-pNPY. Two independent experiments were performed in triplicate. cDetermined by competition binding on CHO-hY4R-Gqi5-mtAEQ cells using the radioligand [3H]UR-KK200.
(§7) Two independent experiments were performed in triplicate.
(§8) SEM = standard error of the mean. […]

hY4R = target: T3, hY4R (Homo sapiens, UniProt P50391); assay: Competition binding on CHO-hY4R-Gqi5-mtAEQ cells with [^3H]UR-KK200; settings: for Ki: CHO-hY4R-Gqi5-mtAEQ cells, [^3H]UR-KK200; for selectivity for Y1R over Y4R (multiple of the Ki value for Y1R): calculated from Ki values; for binding to Y4R (in words): maximum concentration of 10 µM
T3 construct: expressed in transfected cells; host or cells: CHO cells (CHO-hY4R-Gqi5-mtAEQ)
T3 sequence (P50391 whole entry): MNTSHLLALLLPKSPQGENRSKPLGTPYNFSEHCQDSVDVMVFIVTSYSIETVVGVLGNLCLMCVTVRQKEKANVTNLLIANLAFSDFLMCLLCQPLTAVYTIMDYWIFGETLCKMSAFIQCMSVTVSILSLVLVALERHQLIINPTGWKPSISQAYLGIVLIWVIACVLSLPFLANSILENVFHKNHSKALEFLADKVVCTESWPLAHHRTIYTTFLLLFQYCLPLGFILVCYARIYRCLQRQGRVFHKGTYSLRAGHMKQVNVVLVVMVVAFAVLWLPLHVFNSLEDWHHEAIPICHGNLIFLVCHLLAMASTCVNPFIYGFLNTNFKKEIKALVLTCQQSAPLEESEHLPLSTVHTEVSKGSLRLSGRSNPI
Method: as §1, §2, §3, §4, §5, §6, §7, §8

hY5R = target: T4, hY5R (Homo sapiens, UniProt Q15761); assay: Competition binding on HEC-1b hY5R cells with [^3H]propionyl-pNPY; settings: for selectivity for Y1R over Y5R (multiple of the Ki value for Y1R): calculated from Ki values; for binding to Y5R (in words): maximum concentration of 10 µM
T4 construct: expressed in transfected cells; host or cells: HEC-1b cells (HEC-1b hY5R)
T4 sequence (Q15761 1-445): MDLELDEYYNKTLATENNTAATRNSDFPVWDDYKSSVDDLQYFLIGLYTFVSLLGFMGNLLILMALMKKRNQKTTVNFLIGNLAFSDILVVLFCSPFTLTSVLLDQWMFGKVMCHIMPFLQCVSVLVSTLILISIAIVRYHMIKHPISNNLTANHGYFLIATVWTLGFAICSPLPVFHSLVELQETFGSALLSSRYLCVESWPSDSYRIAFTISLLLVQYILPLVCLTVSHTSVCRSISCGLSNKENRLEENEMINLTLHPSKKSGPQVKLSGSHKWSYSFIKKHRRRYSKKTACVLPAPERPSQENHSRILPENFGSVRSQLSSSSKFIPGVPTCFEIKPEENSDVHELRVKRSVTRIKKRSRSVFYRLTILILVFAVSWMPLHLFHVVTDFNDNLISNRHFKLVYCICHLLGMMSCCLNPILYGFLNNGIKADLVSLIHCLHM
Method: as §1, §2, §3, §4, §5, §6, §7, §8

Structure (SMILES)	Ki (hY1R) [µM]	Ki (hY2R) [µM]	selectivity for Y1R over Y2R (multiple of the Ki value for Y1R) (hY2R) [×]	binding to Y2R (in words) (hY2R)	Ki (hY4R) [µM]	selectivity for Y1R over Y4R (multiple of the Ki value for Y1R) (hY4R) [×]	binding to Y4R (in words) (hY4R)	Ki (hY5R) [µM]	selectivity for Y1R over Y5R (multiple of the Ki value for Y1R) (hY5R) [×]	binding to Y5R (in words) (hY5R)
C#CCNC(=O)N=C(N)NCCC[C@@H](NC(=O)C(c1ccccc1)c1ccccc1)C(=O)NCc1ccc(O)cc1 [compound 7]	0.00094	–	–	–	–	–	–	–	–	–
N/C(=N/C(=O)NCc1cn([C@@H]2OC(CF)[C@@H](O)C(O)C2O)nn1)NCCC[C@@H](NC(=O)C(c1ccccc1)c1ccccc1)C(=O)NCc1ccc(O)cc1 (stereo partly drawn) [compound 11, (2R)‐5‐{[(1Z)‐Amino({[({1‐[(2R,5S)‐6‐(fluoromethyl)‐3,4,5‐trihydroxyoxan‐2‐yl]‐1H‐1,2,3‐triazol‐4‐yl}methyl)carbamoyl]imino})methyl]amino}‐2‐(2,2‐diphenylacetamido)‐N‐[(4‐hydroxyphenyl)-methyl]pentanamide]	0.208	> 10	> 48	None of the three compounds showed considerable binding	> 3	> 14	None of the three compounds showed considerable binding	> 15	> 72	None of the three compounds showed considerable binding
N/C(=N/C(=O)NCc1cn(CCOCCF)nn1)NCCC[C@@H](NC(=O)C(c1ccccc1)c1ccccc1)C(=O)NCc1ccc(O)cc1 [compound 12, (2R)‐5‐{[(1Z)‐Amino({[({1‐[2‐(2‐fluoroethoxy)ethyl]‐1H‐1,2,3‐triazol‐4‐yl}methyl)carbamoyl]-imino})methyl]amino}‐2‐(2,2‐diphenylacetamido)‐N‐[(4‐hydroxyphenyl)methyl]pentanamide]	0.0028	> 10	> 3610	None of the three compounds showed considerable binding	> 10	> 3610	None of the three compounds showed considerable binding	> 15	> 5415	None of the three compounds showed considerable binding
N/C(=N/C(=O)NCc1cn(CCOCCOCCOCCF)nn1)NCCC[C@@H](NC(=O)C(c1ccccc1)c1ccccc1)C(=O)NCc1ccc(O)cc1 [compound 13, (2R)‐5‐{[(1Z)‐Amino[({[1‐(2‐{2‐[2‐(2‐fluoroethoxy)ethoxy]ethoxy}ethyl)‐1H‐1,2,3‐triazol‐4‐yl]methyl}carbamoyl)imino]methyl]amino}‐2‐(2,2‐diphenylacetamido)‐N‐[(4‐hydroxyphenyl)-methyl]pentanamide]	0.029	> 5	> 173	None of the three compounds showed considerable binding	> 10	> 345	None of the three compounds showed considerable binding	> 10	> 345	None of the three compounds showed considerable binding
